In patent publication US12186283B2, “Bismuth-thiol compositions and methods of use” (Microbion Corporation, priority 2018, dated 2025):
Converted amounts (≈) assume the structure as drawn. “And” between values parts separate entries of the source, which are not always exact repeats. Identical values can stand only once. Like-named read-outs stand apart in the source and are kept apart here.

Experiments:
[1] = tested on: Staphylococcus aureus (MRSA); experiment: Broth microdilution MIC (Example 11); format: cell-based
Pseudomonas aeruginosa [2] = details: P. aeruginosa MMX 103 (ATCC 27853); cited from earlier work
Acinetobacter baumannii = experiment: Broth microdilution MIC (Example 11); format: cell-based
[3] = tested on: Enterococcus spp. (E. faecalis, E. faecium); experiment: Broth microdilution MIC (Example 11); format: cell-based; details: VRE, LevR, CipR, EryR
Pseudomonas aeruginosa [4] = experiment: Broth microdilution MIC (Example 11); format: cell-based
Klebsiella pneumoniae = experiment: Broth microdilution MIC (Example 11); format: cell-based
Escherichia coli [5] = details: E. coli MMX 102 (ATCC 25922); cited from earlier work
Enterobacter cloacae = experiment: Broth microdilution MIC (Example 11); format: cell-based; details: E. cloacae MMX 5981 (ATCC BAA-2468); NDM-1, LevR, MEMR, CAZR, GmR
[6] = tested on: Staphylococcus aureus (MRSA); details: S. aureus MMX 101 (ATCC 29213); cited from earlier work
Escherichia coli [7] = experiment: Broth microdilution MIC (Example 11); format: cell-based
Bacteroides fragilis = details: B. fragilis MMX 123 (ATCC 25285); cited from earlier work
Clostridium difficile = details: C. difficile MMX 4381 (ATCC 700057), CC^I; cited from earlier work
N. gonorrhoeae = N. gonorrhoeae MMX 683 (ATCC 49226); cited from earlier work
[8] = tested on: S. pneumoniae (pneumococci); details: S. pneumoniae MMX 6837 (ATCC 49619); cited from earlier work
[9] = tested on: Burkholderia cepacia complex; experiment: Checkerboard FIC assay, BisEDT with CF agents (Example 10); format: cell-based, Burkholderia spp.
P. aeruginosa = experiment: as above; format: cell-based, Pseudomonas aeruginosa; details: for MICB: Meropenem MIC in combination with BisEDT
[10] = tested on: beta-hemolytic streptococci (S. pyogenes, S. agalactiae); experiment: Broth microdilution MIC (Example 11); format: cell-based, Streptococcus pyogenes, Streptococcus agalactiae; details: read-out: MIC
[11] = P. aeruginosa 6322, Meropenem in combination with BisEDT, checkerboard rows C-G

Gentamicin
MIC ([1]; S. aureus MMX 101 (ATCC 29213), QC, MSSA): 0.12 µg/mL | MIC ([1]; S. aureus MMX 5373, MRSA, LevR, CipR, CCR, EryR, OxR): 0.25 µg/mL | MIC ([1]; S. aureus MMX 6311, MRSA, LevR, CipR, CCR, EryR, OxR): 0.25 µg/mL | MIC ([1]; S. aureus MMX 9203, MRSA, LevR, CipR, EryR, OxR): 0.12 µg/mL | MIC ([1]; S. aureus MMX 9204, MRSA, LevR, CipR, EryR, OxR): 0.25 µg/mL | MIC ([1]; S. aureus MMX 9205, MRSA, LevR, CipR, CCR, EryR, OxR): 0.25 µg/mL | CLSI QC range (MIC) (Pseudomonas aeruginosa [2]): (0.5-2) | MIC (Acinetobacter baumannii; A. baumannii MMX 2592, MDR, LevR, CipR, MEMR, CAZR, GmR): > 64 µg/mL | MIC (Acinetobacter baumannii; A. baumannii MMX 2593, MDR, LevR, CipR, MEMR, CAZR, GmR): > 64 µg/mL | MIC (Acinetobacter baumannii; A. baumannii MMX 3372, MDR, CipR, MEMI, CAZI): 0.5 µg/mL | MIC (Acinetobacter baumannii; A. baumannii MMX 3373, Sensitive): 0.12 µg/mL | MIC (Acinetobacter baumannii; A. baumannii MMX 4651 (NCTC 13304), MDR, OXA-27, LevR, CipR, MEMR, CAZR, GmI): 8 µg/mL | MIC ([3]; E. faecalis MMX 8960): >64 µg/mL | MIC ([3]; E. faecalis MMX 8961): 8 µg/mL | MIC ([3]; E. faecalis MMX 8962): >64 µg/mL | MIC ([3]; E. faecium MMX 485, vanA): >64 µg/mL | MIC ([3]; E. faecium MMX 752, vanA): >64 µg/mL | MIC (Pseudomonas aeruginosa [4]; P. aeruginosa MMX 103 (ATCC 27853), QC): 1 µg/mL | MIC (Pseudomonas aeruginosa [4]; P. aeruginosa MMX 1381, MDR, LevR, CipR, MEMR, CAZR): 8 µg/mL | MIC (Pseudomonas aeruginosa [4]; P. aeruginosa MMX 2562, MDR, LevR, CipR, MEMR, CAZR): 8 µg/mL | MIC (Pseudomonas aeruginosa [4]; P. aeruginosa MMX 3991, MDR, LevR, CipR, MEMR, CAZR): 4 µg/mL | MIC (Pseudomonas aeruginosa [4]; P. aeruginosa MMX 4654, IMP-7, LevR, CipR, MEMR, CAZR): > 64 µg/mL | MIC (Pseudomonas aeruginosa [4]; P. aeruginosa MMX 4697, VIM-2, LevR, CipR, MEMR, CAZR): 4 µg/mL | MIC (Klebsiella pneumoniae; K. pneumoniae MMX 4622, KPC-2, MEMR, CAZR): 0.25 µg/mL | MIC (Klebsiella pneumoniae; K. pneumoniae MMX 4623, KPC-2, MEMR, CAZR, GMR): 64 µg/mL | MIC (Klebsiella pneumoniae; K. pneumoniae MMX 4653, KPC-3, LevR, MEMR, CAZR): 1 µg/mL | MIC (Klebsiella pneumoniae; K. pneumoniae MMX 4683, KPC-2, LevR, MEMR, CAZR): 1 µg/mL | MIC (Klebsiella pneumoniae; K. pneumoniae MMX 4684, ESBL, MEMR): 0.25 µg/mL | MIC (Klebsiella pneumoniae; K. pneumoniae MMX 4685, ESBL, LevR, MEMR, CAZR): 1 µg/mL | MIC (Klebsiella pneumoniae; K. pneumoniae MMX 4694, KPC-3, LevR, MEMR, CAZR): 8 µg/mL | MIC (Klebsiella pneumoniae; K. pneumoniae MMX 5979, NDM-1, LevR, MEMR, CAZR, GmR): >64 µg/mL | CLSI QC range (MIC) (Escherichia coli [5]): (0.25-1) μg/mL | MIC (Enterobacter cloacae): >64 µg/mL | CLSI QC range (MIC) [6]: (0.12-1) μg/mL | MIC (Escherichia coli [7]; E. coli MMX 102 (ATCC 25922), QC): 1 µg/mL | MIC (Escherichia coli [7]; E. coli MMX 5980 (ATCC BAA-2469), NDM-1, LevR, MEMR, CAZR, GmR): >64 µg/mL | MIC (Escherichia coli [7]; E. coli MMX 8423, ESBL, LevR, CAZR, GmR): 64 µg/mL | MIC (Escherichia coli [7]; E. coli MMX 8424, ESBL, CAZR): 0.25 µg/mL | MIC (Escherichia coli [7]; E. coli MMX 8425, ESBL, LevR, CAZR, GmR): >64 µg/mL

Cc1ncc([N+](=O)[O-])n1CCO [Metronidazole]
MIC, CLSI QC range (Bacteroides fragilis): (0.25-1) pg/mL | MIC, CLSI QC range (Clostridium difficile): (0.12-0.5) pg/mL

CO/N=C(\C(=O)N[C@@H]1C(=O)N2C(C(=O)O)=C(CSc3nc(=O)c(=O)[nH]n3C)CS[C@H]12)c1csc(N)n1 [Ceftriaxone]
MIC, CLSI QC range (N. gonorrhoeae): (0.004-0.015) μg/mL

CCc1c(Cl)c(O)c(Cl)c(O)c1C(=O)O[C@H]1[C@H](O)[C@H](OC)[C@H](OC/C2=C\C=C\C[C@H](O)/C(C)=C/[C@H](CC)[C@@H](O[C@@H]3OC(C)(C)[C@@H](OC(=O)C(C)C)[C@H](O)[C@@H]3O)/C(C)=C/C(C)=C/C[C@@H]([C@@H](C)O)OC2=O)O[C@@H]1C [Fidaxomicin]
MIC, CLSI QC range (Clostridium difficile): (0.06-0.25) pg/mL

C[C@@H](O)[C@H]1C(=O)N2C(C(=O)O)=C(S[C@@H]3CN[C@H](C(=O)N(C)C)C3)[C@H](C)[C@H]12 [Meropenem, reference compound]
CLSI QC range (MIC) (Pseudomonas aeruginosa [2]): (0.25-1) | MIC ([3]; Enterococcus faecium, E. faecium MMX 485, vanA, read-out: MIC): > 64 µg/mL | CLSI QC range (MIC) (Escherichia coli [5]): (0.008-0.06) μg/mL | MIC, CLSI QC range [8]: (0.06-0.25) μg/mL | FICB ([9]; B. cenocepacia 548, FIC of Meropenem in combination with BisEDT): 1 | MICB ([9]; B. cenocepacia 548, MIC of Meropenem in combination with BisEDT): 4 µg/mL | FICB ([9]; B. cenocepacia 813, FIC of Meropenem in combination with BisEDT): 1 | FICB ([9]; B. cepacia 546, Meropenem FIC in combination with BisEDT, per checkerboard row): 1 and 2 | MICB ([9]; B. cepacia 546, Meropenem MIC in combination with BisEDT, per checkerboard row): 4 µg/mL and 8 µg/mL | FICB ([9]; B. cepacia 1793, Meropenem FIC in combination with BisEDT, per checkerboard row): 2 and 4 | MICB ([9]; B. cepacia 1793, Meropenem MIC in combination with BisEDT, per checkerboard row): 8 µg/mL and 16 µg/mL | MICB ([9]; B. multivorans 1795, MIC of Meropenem in combination with BisEDT): 4 µg/mL | MIC ([9]; B. multivorans 1795, Meropenem alone, panel with BisEDT, read-out: Drug B MIC): 4 µg/mL | FICB (P. aeruginosa; [11]): 1 | MICB (Drug B concentration in combination) (P. aeruginosa; [11]): 16 µg/mL | FICB (P. aeruginosa; P. aeruginosa 8798, Meropenem FIC in combination with BisEDT, per checkerboard row): 1 | MICB (P. aeruginosa; P. aeruginosa 8798, per checkerboard row): 32 µg/mL | FICB (P. aeruginosa; P. aeruginosa 9108, Meropenem FIC in combination with BisEDT, per checkerboard row): 1 | MICB (P. aeruginosa; P. aeruginosa 9108, per checkerboard row): 1 µg/mL | MIC ([10]; S. agalactiae MMX 3741, ERY^R CC^R): 0.03 µg/mL (≈ 0.0782 µM) | MIC ([10]; S. agalactiae MMX 3743, ERY^R CC^R): 0.06 µg/mL (≈ 0.156 µM) | MIC ([10]; S. agalactiae MMX 4077, ERY^R CC^R): 0.06 µg/mL (≈ 0.156 µM) | MIC ([10]; S. agalactiae MMX 4079, ERY^R CC^R Pen^R MEM^R): 8 µg/mL (≈ 20.9 µM) | MIC ([10]; S. agalactiae MMX 4086, ERY^R CC^R): 0.06 µg/mL (≈ 0.156 µM)
